Test results from patent US11000033B2, “Ketone or oxime compound, and herbicide” (NISSAN CHEMICAL CORPORATION, priority 2014, dated 2021).

Columns and labels:
Format in all cases: in vivo
Stellaria media = assay: Test Example 4: herbicidal effect by soil treatment (symbol P); conditions: for P (Stellaria media) herbicidal effect grade: application herbicide amount 320 g/ha
Excerpt: (§1) Herbicidal Effect Test by Soil Treatment
(§2) Sterilized diluvial soil was placed in a plastic box having a length of 21 cm, a width of 13 cm, and a depth of 7 cm. Each of the seeds of Digitaria ciliaris, Setaria viridis, Echinochloa crus-galli var. crus-galli, Avena fatua, Alopecurus myosuroides, Lolium multiflorum Lam., Apera spica-venti, Abutilon theophrasti, Amaranthus retroflexus, Chenopodium album, Stellaria media, Galium spurium, Veronica persica, corn, soybean, rice, wheat, beet, and rapeseed was sowed in a spot-like manner and was covered with the soil of a thickness of about 1.5 cm. Subsequently, the emulsion agent of the compound present invention prepared in accordance with Formulation Example 2 was diluted with water so as to be a predetermined herbicide amount and the diluted emulsion agent was uniformly applied to the surface of the soil with a small-size spray. The plastic box was placed in a greenhouse of 25° C. to 30° C. to grow plant. 3 weeks later from the herbicide application, the effect to each plant was investigated in accordance with the criteria of Test Example 1.

Digitaria ciliaris = assay: Test Example 4: herbicidal effect by soil treatment (symbol F); conditions: for F (Digitaria ciliaris) herbicidal effect grade: application herbicide amount 320 g/ha
Excerpt: as §1, §2

Setaria viridis [1] = assay: Test Example 4: herbicidal effect by soil treatment (symbol G); conditions: for G (Setaria viridis) herbicidal effect grade: application herbicide amount 320 g/ha
Excerpt: as §1, §2

[2] = test system: Echinochloa crus-galli var. crus-galli; assay: Test Example 5: herbicidal effect by foliage application, plastic box (symbol H); conditions: 3 weeks after application
Procedure, shortened: (§3)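 Herbicide, formulated as an emulsion and diluted in water, is sprayed onto the aerial parts of 14-day seedlings. These were grown at 25° C. to 30° C. in sterilized diluvial soil; effects are graded after 3 weeks.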

Monochoria vaginalis = assay: Test Example 2: herbicidal activity, application during weed generation in submerged conditions (symbol C); conditions: Table 23, grade 0-5 by criteria of Test Example 1
Procedure, shortened: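 Treatment timing was the one- to two-leaf stage, with diluted emulsifiable compound dropped onto the paddy water (depth 4 cm) over alluvial soil. All three species grew from a mixed sowing in a 25° C. to 30° C. greenhouse. Injury was judged by eye 3 weeks on.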

Galium spurium = assay: Test Example 5: herbicidal effect by foliage application, plastic box (symbol Q); conditions: 3 weeks after application
Procedure, shortened: as §3

Scirpus juncoides = assay: Test Example 1: herbicidal activity, application before weed generation in submerged conditions (symbol B)
Procedure, shortened: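 Application before weed emergence: an aqueous dilution of the emulsion formulation was poured onto the surface of 4 cm-deep floodwater on the day of sowing. Effect was judged after 3 weeks (greenhouse, 25–30 °C).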

Setaria viridis [3] = assay: Test Example 5: herbicidal effect by foliage application, plastic box (symbol G); conditions: 3 weeks after application
Procedure, shortened: as §3

[4] = test system: directly sowed rice plant; assay: Test Example 3: effect on crop by foliage application, Wagner pot (symbol b)
Procedure, shortened: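 Greenhouse culture at 25–30 °C of seeded rice, Cyperus difformis, Leptochloa chinensis and Echinochloa crus-galli var. crus-galli, in alluvial soil held under 0.1–0.5 cm of water in a Wagner pot.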

beet = assay: Test Example 5: effect on crop by foliage application, plastic box (symbol f); conditions: 3 weeks after application
Procedure, shortened: (§4)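 Plants were raised from seed in a greenhouse (25° C. to 30° C.) after sowing in a plastic box of sterilized diluvial soil.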

[5] = test system: Echinochloa crus-galli var. crus-galli; assay: Test Example 4: herbicidal effect by soil treatment (symbol H); conditions: for H (Echinochloa crus-galli var. crus-galli) herbicidal effect grade: application herbicide amount 320 g/ha
Excerpt: as §1, §2

rapeseed = assay: Test Example 5: effect on crop by foliage application, plastic box (symbol g); conditions: 3 weeks after application
Procedure, shortened: as §4

soybean [6] = assay: Test Example 4: effect on crop by soil treatment (symbol d); conditions: for d (soybean) effect on crop grade: application herbicide amount 320 g/ha
Excerpt: as §1
Sterilized diluvial soil was placed in a plastic box having a length of 21 cm, a width of 13 cm, and a depth of 7 cm. Each of the seeds of Digitaria ciliaris, Setaria viridis, Echinochloa crus-galli var. crus-galli, Avena fatua, Alopecurus myosuroides, Lolium multiflorum Lam., Apera spica-venti, Abutilon theophrasti, Amaranthus retroflexus, Chenopodium album, Stellaria media, Galium spurium, Veronica persica, corn, soybean, rice, wheat, beet, and rapeseed was sowed in a spot-like manner and was covered with the soil of a thickness of about 1.5 cm. […] The plastic box was placed in a greenhouse of 25° C. to 30° C. to grow plant.

soybean [7] = assay: Test Example 5: effect on crop by foliage application, plastic box (symbol d); conditions: 3 weeks after application
Procedure, shortened: as §4

[8] = application herbicide amount 320 g/ha
[9] = application herbicide amount 269 g/ha

| SMILES | P (Stellaria media) herbicidal effect grade (Stellaria media) | F (Digitaria ciliaris) herbicidal effect grade (Digitaria ciliaris) | G (Setaria viridis) herbicidal effect grade (Setaria viridis [1]) | H: Echinochloa crus-galli var. crus-galli, herbicidal effect grade ([2]; 320 g/ha) | Herbicidal effect grade, C: Monochoria vaginalis (Monochoria vaginalis; [8]) | Q: Galium spurium, herbicidal effect grade (Galium spurium; 320 g/ha) | Herbicidal effect grade, B: Scirpus juncoides (Scirpus juncoides; [8]) | G: Setaria viridis, herbicidal effect grade (Setaria viridis [3]; 320 g/ha) | effect on crop b (directly sowed rice plant), grade 0-5 [4, 8] | f: beet, effect on crop grade (beet; 320 g/ha) | H (Echinochloa crus-galli var. crus-galli) herbicidal effect grade [5] | g: rapeseed, effect on crop grade (rapeseed; 320 g/ha) | d (soybean) effect on crop grade (soybean [6]) | d: soybean, effect on crop grade (soybean [7]; 320 g/ha) | further results |
| --- | --- | --- | --- | --- | --- | --- | --- | --- | --- | --- | --- | --- | --- | --- | --- |
| CON=C(C)CC1CC(OC(=O)C(C)(C)C)=C(c2c(C)cc(C)cc2C)C1=O (stereo not drawn) [1-004, 2-mesityl-4-{2-(methoxyimino)propyl}-3-oxocyclopent-1-en-1-yl pivalate] | 0 (Herbicidal ratio of 5% or lower (almost no effect)) | 5 (Herbicidal ratio of 90% or more (almost completely withered)) | 5 (Herbicidal ratio of 90% or more (almost completely withered)) | 5 (Herbicidal ratio of 90% or more (almost completely withered)) | 4 (Herbicidal ratio of 70% or higher and lower than 90%) | 3 (Herbicidal ratio of 40% or higher and lower than 70%) | 5 (Herbicidal ratio of 90% or more (almost completely withered)) | 5 (Herbicidal ratio of 90% or more (almost completely withered)) | 5 (Herbicidal ratio of 90% or more (almost completely withered)) | 3 (Herbicidal ratio of 40% or higher and lower than 70%) | 5 (Herbicidal ratio of 90% or more (almost completely withered)) | 4 (Herbicidal ratio of 70% or higher and lower than 90%) | 3 (Herbicidal ratio of 40% or higher and lower than 70%) | 4 (Herbicidal ratio of 70% or higher and lower than 90%) |  |
| CON=C(C)CC1CC(OC(C)=O)=C(c2c(C)cc(C)cc2C)C1=O (stereo not drawn) [1-005] | 0 (Herbicidal ratio of 5% or lower (almost no effect)) | 5 (Herbicidal ratio of 90% or more (almost completely withered)) | 3 (Herbicidal ratio of 40% or higher and lower than 70%) | 5 (Herbicidal ratio of 90% or more (almost completely withered)) | 4 (Herbicidal ratio of 70% or higher and lower than 90%) | 4 (Herbicidal ratio of 70% or higher and lower than 90%) | 5 (Herbicidal ratio of 90% or more (almost completely withered)) | 5 (Herbicidal ratio of 90% or more (almost completely withered)) | 5 (Herbicidal ratio of 90% or more (almost completely withered)) | 3 (Herbicidal ratio of 40% or higher and lower than 70%) | 5 (Herbicidal ratio of 90% or more (almost completely withered)) | 4 (Herbicidal ratio of 70% or higher and lower than 90%) | 2 (Herbicidal ratio of 20% or higher and lower than 40%) | 4 (Herbicidal ratio of 70% or higher and lower than 90%) |  |
| CON=C(C)CC1CC(OC(=O)CN(C)C(=O)c2ccccc2)=C(c2c(C)cc(C)cc2C)C1=O (stereo not drawn) [1-139] |  |  |  |  | 1 (Herbicidal ratio of 5% or higher and lower than 20%) |  | 4 (Herbicidal ratio of 70% or higher and lower than 90%) |  | 5 (Herbicidal ratio of 90% or more (almost completely withered)) |  |  |  |  |  | P: Stellaria media, herbicidal effect grade (Stellaria media; 320 g/ha): 0 (Herbicidal ratio of 5% or lower (almost no effect)); F: Digitaria ciliaris, herbicidal effect grade (Digitaria ciliaris; 320 g/ha): 5 (Herbicidal ratio of 90% or more (almost completely withered)); G: Setaria viridis, herbicidal effect grade (Setaria viridis [1]; 320 g/ha): 5 (Herbicidal ratio of 90% or more (almost completely withered)); H: Echinochloa crus-galli var. crus-galli, herbicidal effect (criteria 0-5) ([2]; 320 g/ha): 5 (Herbicidal ratio of 90% or more (almost completely withered)); Q: Galium spurium, herbicidal effect (criteria 0-5) (Galium spurium; 320 g/ha): 3 (Herbicidal ratio of 40% or higher and lower than 70%); G: Setaria viridis, herbicidal effect (criteria 0-5) (Setaria viridis [3]; 320 g/ha): 5 (Herbicidal ratio of 90% or more (almost completely withered)); f: beet, effect on crop (criteria 0-5) (beet; 320 g/ha): 0 (Herbicidal ratio of 5% or lower (almost no effect)); H: Echinochloa crus-galli var. crus-galli, herbicidal effect grade ([5]; 320 g/ha): 5 (Herbicidal ratio of 90% or more (almost completely withered)); g: rapeseed, effect on crop (criteria 0-5) (rapeseed; 320 g/ha): 4 (Herbicidal ratio of 70% or higher and lower than 90%); d: soybean, effect grade on crop (soybean [6]; 320 g/ha): 0 (Herbicidal ratio of 5% or lower (almost no effect)); d: soybean, effect on crop (criteria 0-5) (soybean [7]; 320 g/ha): 1 (Herbicidal ratio of 5% or higher and lower than 20%) |
| CC(=O)C(C)C1CC(O)=C(c2c(C)cc(C)cc2C)C1=O (stereo not drawn) [2-005] |  |  |  |  |  |  |  |  |  |  |  |  |  |  | P: Stellaria media, herbicidal effect grade (Stellaria media; [9]): 0 (Herbicidal ratio of 5% or lower (almost no effect)); F: Digitaria ciliaris, herbicidal effect grade (Digitaria ciliaris; [9]): 5 (Herbicidal ratio of 90% or more (almost completely withered)); G: Setaria viridis, herbicidal effect grade (Setaria viridis [1]; [9]): 4 (Herbicidal ratio of 70% or higher and lower than 90%); H: Echinochloa crus-galli var. crus-galli, herbicidal effect grade ([2]; 269 g/ha): 5 (Herbicidal ratio of 90% or more (almost completely withered)); Herbicidal effect grade, C: Monochoria vaginalis (Monochoria vaginalis; [9]): 0 (Herbicidal ratio of 5% or lower (almost no effect)); Q: Galium spurium, herbicidal effect grade (Galium spurium; 269 g/ha): 0 (Herbicidal ratio of 5% or lower (almost no effect)); Herbicidal effect grade, B: Scirpus juncoides (Scirpus juncoides; [9]): 0 (Herbicidal ratio of 5% or lower (almost no effect)); G: Setaria viridis, herbicidal effect grade (Setaria viridis [3]; 269 g/ha): 4 (Herbicidal ratio of 70% or higher and lower than 90%); effect on crop b (directly sowed rice plant), grade 0-5 [4, 9]: 5 (Herbicidal ratio of 90% or more (almost completely withered)); f: beet, effect on crop grade (beet; 269 g/ha): 2 (Herbicidal ratio of 20% or higher and lower than 40%); H: Echinochloa crus-galli var. crus-galli, herbicidal effect grade [5, 9]: 5 (Herbicidal ratio of 90% or more (almost completely withered)); g: rapeseed, effect on crop grade (rapeseed; 269 g/ha): 4 (Herbicidal ratio of 70% or higher and lower than 90%); d: soybean, effect on crop grade (soybean [6]; [9]): 0 (Herbicidal ratio of 5% or lower (almost no effect)); d: soybean, effect on crop grade (soybean [7]; 269 g/ha): 0 (Herbicidal ratio of 5% or lower (almost no effect)) |
| C=CCOC1=C(c2c(C)cc(C)cc2C)C(=O)C(CC(C)=NOC)C1 (stereo not drawn) [1-007] |  | 0 (Herbicidal ratio of 5% or lower (almost no effect)) | 0 (Herbicidal ratio of 5% or lower (almost no effect)) | 0 (Herbicidal ratio of 5% or lower (almost no effect)) | 0 (Herbicidal ratio of 5% or lower (almost no effect)) | 0 (Herbicidal ratio of 5% or lower (almost no effect)) | 0 (Herbicidal ratio of 5% or lower (almost no effect)) | 0 (Herbicidal ratio of 5% or lower (almost no effect)) | 0 (Herbicidal ratio of 5% or lower (almost no effect)) | 0 (Herbicidal ratio of 5% or lower (almost no effect)) | 0 (Herbicidal ratio of 5% or lower (almost no effect)) | 0 (Herbicidal ratio of 5% or lower (almost no effect)) | 0 (Herbicidal ratio of 5% or lower (almost no effect)) | 0 (Herbicidal ratio of 5% or lower (almost no effect)) |  |
